The structures appear in SMILES notation.

One data set in a line: logp. It is filed as physicochemical.
In a further data set the test system is Abutilon theophrasti. Description: Post-emergence herbicidal activity, ABUTH. The note with it: dosage rate 80 g/ha, scored visually after approx. 3 weeks vs untreated controls. It is filed as in vivo. As for the experimental part:
(§1) Seeds of monocotyledonous or dicotyledonous weed plants or crop plants are placed in sandy loam in wood fiber pots, covered with soil and grown in the greenhouse under good growth conditions. 2 to 3 weeks after sowing, the test plants are treated in the one-leaf stage. The compounds according to the invention, which are formulated as wettable powders (WP), are then sprayed onto the green plant parts in the form of an aqueous suspension or emulsion with a water application rate of 600 I/ha (converted) with addition of 0.2% of wetter. After the test plants have been left to stand in the greenhouse for approximately 3 weeks under optimal growth conditions, the activity of the preparation is scored visually in comparison with untreated controls (herbicidal activity in percent (%): 100% activity=plants have died, 0% activity=like control plants).

Data set [1] has as its system Alopecurus myosuroides. Description: Post-emergence herbicidal activity, ALOMY. It is filed as in vivo. The note with it: dosage rate 80 g/ha, scored visually after approx. 3 weeks vs untreated controls. As for the experimental part: as §1
Data set [2] has as its system Alopecurus myosuroides. Description: Pre-emergence herbicidal activity, ALOMY. Format: in vivo. The note with it: 80 g/ha, WP formulation, scored visually after approximately 3 weeks vs untreated controls (100% = plants have died). The text has this: (§2) Seeds of monocotyledonous or dicotyledonous weed plants or crop plants are placed in sandy loam in wood fiber pots and covered with soil. The compounds according to the invention, which are formulated as wettable powders (WP) are then applied to the surface of the soil cover in the form of an aqueous suspension or emulsion with a water application rate of 600 I/ha (converted), with addition of 0.2% wetter. After the treatment, the pots are placed in the greenhouse and maintained under good growth conditions for the test plants. After approximately 3 weeks, the activity of the preparation is scored visually in comparison with untreated controls (herbicidal activity in percent (%): 100% activity=plants have died, 0% activity=like control plants).

The test system of data set [3] is Stellaria media. Nature of the data set: Pre-emergence herbicidal activity, STEME. Format: in vivo. The note with it: 80 g/ha, WP formulation, scored visually after approximately 3 weeks vs untreated controls (100% = plants have died).
Excerpt: as §2

Another data set relates to Viola tricolor. Nature of the data set: Post-emergence herbicidal activity, VIOTR. It is filed as in vivo. The note with it: dosage rate 80 g/ha, scored visually after approx. 3 weeks vs untreated controls. As for the experimental part: as §1
The test system of another data set is Pharbitis purpurea. Description: Post-emergence herbicidal activity, PHBPU. It is filed as in vivo, Pharbitis/Ipomoea purpurea. The note with it: dosage rate 80 g/ha, scored visually after approx. 3 weeks vs untreated controls. The procedure:
as §1

Another data set relates to Lolium multiflorum. Description: Post-emergence herbicidal activity, LOLMU. Format: in vivo. The note with it: dosage rate 80 g/ha, scored visually after approx. 3 weeks vs untreated controls. As for the experimental part: as §1
For another data set, the system named is Echinochloa crus-galli. Description: Post-emergence herbicidal activity, ECHCG. Format: in vivo. The note with it: dosage rate 80 g/ha, scored visually after approx. 3 weeks vs untreated controls. The procedure: as §1
For a further data set, the system named is Matricaria inodora. Description: Pre-emergence herbicidal activity, MATIN. It is filed as in vivo. The note with it: 80 g/ha, WP formulation, scored visually after approximately 3 weeks vs untreated controls (100% = plants have died).
Excerpt: as §2

A further data set concerns Amaranthus retroflexus. Description: Post-emergence herbicidal activity, AMARE. It is filed as in vivo. The note with it: dosage rate 80 g/ha, scored visually after approx. 3 weeks vs untreated controls. As for the experimental part: as §1
The subject of data set [4] is Stellaria media. Description: Post-emergence herbicidal activity, STEME. It is filed as in vivo. The note with it: dosage rate 80 g/ha, scored visually after approx. 3 weeks vs untreated controls. As for the experimental part:
as §1

On to `Clc1ncccc1C1=NOCC1` [XIa-1, 2-Chloro-3-(4,5-dihydroisoxazol-3-yl)pyridine], for which the melting point (commonly the temperature, or range, at which the solid turns liquid) is 183 to 185 °C. Further, in “logp”, the lipophilicity (logP) (commonly a log measure of how a compound divides between an organic and an aqueous phase) amounted to 0.97.
With `Cc1cc(C)nc(NC(=O)NS(=O)(=O)c2ncccc2C2=NOCC2)n1` [Ia-3], the “herbicidal activity ABUTH” value in the data set with Abutilon theophrasti amounted to 90%. Besides, the “herbicidal activity ALOMY” value in the data set with Alopecurus myosuroides [1] is given as 80%. Besides, the “herbicidal activity in percent, ALOMY” value in the data set with Alopecurus myosuroides [2] came to 80%. The “herbicidal activity in percent, STEME” value in the data set with Stellaria media [3] amounted to 80%. For the same molecule, in the data set on Viola tricolor, the “herbicidal activity VIOTR” value was found to be 80%. The “herbicidal activity PHBPU” value in the data set on Pharbitis purpurea turned out to be 90%. The “herbicidal activity LOLMU” value in the data set with Lolium multiflorum worked out at 80%. Moreover, the “herbicidal activity ECHCG” value in the data set with Echinochloa crus-galli was found to be 90%. In addition, the “herbicidal activity in percent, MATIN” value in the data set on Matricaria inodora is reported as 80%. In the data set on Amaranthus retroflexus, the “herbicidal activity AMARE” value was 100%. Further, the “herbicidal activity STEME” value in the data set on Stellaria media [4] was 90%.
For the molecule `COc1cc(Cl)nc(NC(=O)NS(=O)(=O)c2ncccc2C2=NOCC2)n1` [Ia-1, N-[(4-Chloro-6-methoxypyrimidin-2-yl)carbamoyl]-3-(4,5-dihydroisoxazol-3-yl)-pyridine-2-sulfonamide], in the data set with Abutilon theophrasti, the “herbicidal activity ABUTH” value came out at 90%. For the same molecule, in the data set with Alopecurus myosuroides [1], the “herbicidal activity ALOMY” value worked out at 80%. In addition, the “herbicidal activity in percent, ALOMY” value with Alopecurus myosuroides [2] was found to be 90%. In the data set on Stellaria media [3], the “herbicidal activity in percent, STEME” value was determined as 90%. In addition, the “herbicidal activity VIOTR” value in the data set with Viola tricolor stood at 80%. The “herbicidal activity PHBPU” value in the data set on Pharbitis purpurea was 100%. The “herbicidal activity LOLMU” value with Lolium multiflorum was found to be 90%. Also, in the data set with Echinochloa crus-galli, the “herbicidal activity ECHCG” value is listed as 100%. In addition, in the data set with Matricaria inodora, the “herbicidal activity in percent, MATIN” value stood at 90%. In addition, in the data set with Amaranthus retroflexus, the “herbicidal activity AMARE” value was 90%. The “herbicidal activity STEME” value with Stellaria media [4] worked out at 90%.

The values above are taken from patent publication US20110028318A1, “HERBICIDAL COMPOUNDS BASED ON N-AZINYL-N'-PYRIDYLSULPHONYLUREAS” (Bayer CropScience AG, priority 2007, published 2011).
